The source of these data is publication PMC8065850 (Microorganisms, 2021).

Entries after “also recorded” stand apart in the source; their conditions may differ. Some results are limits rather than exact numbers.

The target of one assay is SARS-CoV-2 3CLpro (Severe acute respiratory syndrome coronavirus 2, UniProt P0DTD1). Nature of the assay: biochemical. Format: biochemical.
The next assay has as its target SARS-CoV 3CLpro (Severe acute respiratory syndrome coronavirus, UniProt P0C6X7). The experiment in a line: biochemical. Type of assay: biochemical.
In assay [1] the test system is SARS-CoV-2 in infected Vero cells. To be noted: cited from earlier work.

For the compound `Cc1cccc(C)c1OCC(=O)N[C@@H](Cc1ccccc1)[C@@H](O)C[C@H](Cc1ccccc1)NC(=O)[C@H](C(C)C)N1CCCNC1=O` [Lopinavir], on SARS-CoV-2 3CLpro, the “inhibitory effect in library screening against SARS-CoV-2 3CLpro (in words)” value was “did not block the proteolytic activity”.

`Nc1nc(O)c2ncn(COC(CO)CO)c2n1` [No 1-3, Ganciclovir]: at SARS-CoV 3CLpro, the “inhibitory effect in library screening against SARS-CoV 3CLpro (in words)” value is “little”. In addition, the “inhibitory effect in library screening against SARS-CoV-2 3CLpro (in words)” value against SARS-CoV-2 3CLpro is “little”.

Consider `CC(C)OC(=O)[C@H](C)N[P@](=O)(OC[C@H]1O[C@@H](n2ccc(=O)[nH]c2=O)[C@](C)(F)[C@@H]1O)Oc1ccccc1` [No 2-3, Sofosbuvir], for which, at SARS-CoV 3CLpro, the “inhibitory effect in library screening against SARS-CoV 3CLpro (in words)” value is recorded as “little”. Also, on SARS-CoV-2 3CLpro, the “inhibitory effect in library screening against SARS-CoV-2 3CLpro (in words)” value is reported as “little”.

On to `C=C1[C@H](CO)[C@@H](O)C[C@@H]1n1cnc2c(=O)[nH]c(N)nc21` [No 4-3, Entecavir], for which the “inhibitory effect in library screening against SARS-CoV 3CLpro (in words)” value at SARS-CoV 3CLpro is “little”. Further, at SARS-CoV-2 3CLpro, the “inhibitory effect in library screening against SARS-CoV-2 3CLpro (in words)” value was “little”.

Regarding `Nc1ccn([C@@H]2CS[C@H](CO)O2)c(=O)n1` [No 4-4, Lamivudine], the “inhibitory effect in library screening against SARS-CoV 3CLpro (in words)” value at SARS-CoV 3CLpro is reported as “little”. Moreover, the “inhibitory effect in library screening against SARS-CoV-2 3CLpro (in words)” value against SARS-CoV-2 3CLpro was “little”.

As for `CCN(CC)CCCC(C)Nc1ccnc2cc(Cl)ccc12` (centres unmarked) [No 6-5, Chloroquine], the “inhibitory effect in library screening against SARS-CoV 3CLpro (in words)” value at SARS-CoV 3CLpro is “little”. The “inhibitory effect in library screening against SARS-CoV-2 3CLpro (in words)” value on SARS-CoV-2 3CLpro is recorded as “little”.

On to `CCN(CCO)CCCC(C)Nc1ccnc2cc(Cl)ccc12` (centres unmarked) [No 6-6, Hydroxychloroquine], for which, at SARS-CoV 3CLpro, the “inhibitory effect in library screening against SARS-CoV 3CLpro (in words)” value is listed as “little”. In addition, the “inhibitory effect in library screening against SARS-CoV-2 3CLpro (in words)” value against SARS-CoV-2 3CLpro is listed as “little”.

As usually defined, the IC50 is the point on the concentration scale where inhibition reaches its midpoint. Low values mean greater potency, high ones weaker potency. Take `Nc1nc(NC2CC2)c2ncn([C@H]3C=C[C@@H](CO)C3)c2n1` [abacavir, Abacavir]: the values for the concentration for half-maximal inhibition (IC50) against SARS-CoV 3CLpro and on SARS-CoV-2 3CLpro were 24.7 µM and 12.6 µM, respectively.

For the compound `Nc1ccn(C[C@@H](CO)OCP(=O)(O)O)c(=O)n1` [cidofovir, Cidofovir], the results for the concentration for half-maximal inhibition (IC50) on SARS-CoV 3CLpro and against SARS-CoV-2 3CLpro were above 47 µM and above 36 µM, respectively.

On to `CC(C)(C)NC(=O)[C@@H]1CN(Cc2cccnc2)CCN1C[C@@H](O)C[C@@H](Cc1ccccc1)C(=O)N[C@H]1c2ccccc2C[C@H]1O` [indinavir, Indinavir], for which, on SARS-CoV 3CLpro, the IC50 was 31.5 µM.

With `CCC(CC)COC(=O)[C@H](C)N[P@](=O)(OC[C@H]1O[C@@](C#N)(c2ccc3c(N)ncnn23)[C@H](O)[C@@H]1O)Oc1ccccc1` [remdesivir, Remdesivir], on SARS-CoV-2 3CLpro, the “inhibitory effect in library screening against SARS-CoV-2 3CLpro (in words)” value is listed as “minor inhibitory activity”.

In the case of `CC(C)c1nc(CN(C)C(=O)N[C@H](C(=O)N[C@@H](Cc2ccccc2)C[C@H](O)[C@H](Cc2ccccc2)NC(=O)OCc2cncs2)C(C)C)cs1` [ritonavir, Ritonavir], the “inhibitory effect in library screening against SARS-CoV-2 3CLpro (in words)” value at SARS-CoV-2 3CLpro is recorded as “did not block the proteolytic activity; also recorded: did not show clear inhibitory activity”.

For the compound `CCCc1nn(C)c2c(=O)[nH]c(-c3cc(S(=O)(=O)N4CCN(C)CC4)ccc3OCC)nc12` [sildenafil, Sildenafil], the half-maximal inhibitory concentration (IC50) was found to be 12.5 µM against SARS-CoV 3CLpro and 8.25 µM against SARS-CoV-2 3CLpro.

For `CN1CC(=O)N2[C@H](c3ccc4c(c3)OCO4)c3[nH]c4ccccc4c3C[C@@H]2C1=O` [tadalafil, Tadalafil], on SARS-CoV 3CLpro, the “inhibitory effect in library screening against SARS-CoV 3CLpro (in words)” value is recorded as “did not display meaningful inhibitory activity”. Further, the “inhibitory effect in library screening against SARS-CoV-2 3CLpro (in words)” value against SARS-CoV-2 3CLpro is given as “did not display meaningful inhibitory activity”.

`C[C@H](Cn1cnc2c(N)ncnc21)OCP(=O)(O)O` [tenofovir, Tenofovir] showed a half-inhibitory concentration (IC50) against SARS-CoV 3CLpro of 14.2 µM. Moreover, the “killing of SARS-CoV-2 in infected Vero cells” value in assay [1] is on record as “kill SARS-CoV-2”.
